Key:
human PMN-MDSC = assay: Human PMN-MDSC assay (PMN-MDSC/CD8+ T cell/DC coculture, IFNγ HTRF); assay type: cell-based; conditions: 10 μM
From the text: CD34+ cells were isolated from fresh human blood from healthy donors, obtained from the Health Services unit of the Healthcare Business of Merck KGaA, Darmstadt, Germany. First, peripheral blood mononuclear cells (PBMC) were isolated via density centrifugation, and then the target cells were isolated via magnetic bead labeling using the EasySep Human CD34 Positive Selection Kit II (Stemcell Technologies #17856). After isolation, the CD34+ cells were cultivated in cultivation medium (StemSpan SFEM II (Stemcell Technologies #09655) + 10% (1×) StemSpan CD34+ Expansion (Stemcell Technologies #02691)) for 10 to 12 days. At that point, the media was exchanged for fresh […] medium (Gibco #31870), supplemented with 10% FCS, 2 mM L-glutamine, 100 U/ml penicillin/streptomycin, 1 mM sodium-pyruvate, 1 mM non-essential amino acids, 50 μM ß-mercaptoethanol, and 100 ng/ml human G-CSF (PeproTech, AF-300-23), and the cells were incubated for 10 days in order to derive human PMN-MDSC.
Monocytes were isolated from fresh human blood from healthy donors, obtained from Health Services unit of the Healthcare Business of Merck KGaA, Darmstadt, Germany. […]
PMN-MDSC and DC were differentiated as described above. […] At that point, the supernatant was transferred and IFNγ was measured using a human INFγ HTRF kit (Cisbio #62[…]) following standard assay protocol provided by the manufacturer. The data was analyzed using Genedata software (GeneData Inc, https://www.genedata.com/) with 0% defined by the DMSO-treated wells and 100% effect defined by the wells without PMN-MDSC. […]
After confirming the physiological and pharmacological suitability of the NUP-MDSC model, we developed a high-throughput screen for the identification of potential MDSC modulators (Fig. 4A and supplemental Fig. S3). […] After 72 h, T cell activity was assessed by recording T cell proliferation and IFN-γ secretion. […] Compounds were declared hits if reversing the suppression effect of NUP-MDSC on T cells with ≥50% in either readout resulting in 392 hit compounds (Fig. 4B). […]

A594 cells = assay: CellROX-based detection of ROS levels; assay type: cell-based; conditions: 48 h treatment (compound 2 7.8 μM, N-acetyl-cysteine 300 μM), then 200 μM tert-butyl hydroperoxide 2 h; compared to compound 3 10 μM
Procedure: A594 cells were maintained in Fluorobrite DMEM (Thermo Fisher Scientific) supplemented with GlutaMAX (Thermo Fisher Scientific) and 10% fetal bovine serum (PAN Biotech). Cells were seeded onto a 24-well microplate (Ibidi) and treated with DMSO, 7.8 μM compound 2 (3x EC50), 10 μM compound 3, or 300 μM N-acetyl-cysteine for 48 h. After the treatment, cells were incubated with 200 μM tert-butyl hydroperoxide (Sigma) for 2 h to stimulate ROS production. Then, cells were stained with CellROX deep red (Thermo Fisher Scientific) following the manufacturer’s guidelines. CellROX deep red signal was measured on a Leica DMI 6000 B epifluorescent microscope with a Cy5 filter set. Mean signal intensity per cell was determined from >100 cells per condition from three independent treatments.
For the CellROX assay, three independent treatments were conducted. From each, the mean signal intensity per cell was determined for >100 cells per condition. The statistical significance was calculated by one-way ANOVA followed by a post hoc Tukey’s multiple comparisons test using GraphPad Prism (v.8.3.0).

Structure (SMILES): CCOC(=O)c1nnn(-c2nn3nnnc3c3ccccc23)c1C [compound 2]
- % effect on IFNγ secretion (human PMN-MDSC; mild effect in 4 of 23 donor combinations): < 40%
- activity on IFNγ secretion (human PMN-MDSC; some donors of 23 donor combinations): no activity
- % effect on IFNγ secretion (human PMN-MDSC; strong effect in 5 of 23 donor combinations): > 40%
- CellROX Deep Red fluorescence (amount of ROS in a cell) (A594 cells): decreased significantly

Source: paper PMC10518717, “High-Throughput Screening and Proteomic Characterization of Compounds Targeting Myeloid-Derived Suppressor Cells” (Molecular & Cellular Proteomics : MCP, 2023)
